Patent publication US11332438B2, “Creatine prodrugs, compositions and methods of use thereof” (Ultragenyx Pharmaceutical Inc., priority 2017, dated 2022)
Entries after “also recorded” stand apart in the source; their conditions may differ.

Tests used:
[1] = In vivo IV dosing in CrT KO mice: prodrug, d3-Cr and d3-Crn in brain (Table 5); settings: for AUClast prodrug in the brain: BQL prodrug = 41.2 ng/mL
Protocol: A creatine prodrug is administered as an intravenous bolus injection to groups of three to six adult male CD1 mice at an appropriate creatine prodrug dose equivalent per kg body weight. Animals are conscious at the time of the experiment. Blood samples (0.3 mL) are obtained via a jugular vein cannula at intervals over 8 hours following IV dosing. Blood is processed into plasma, then the plasmais immediately frozen at −80° C. until analyzed by LC-MS/MS. Samples may also be taken form the CSF or other appropriate biological fluid. Brains were collected and flash frozen immediately in liquid nitrogen. Brains were homogenized in 100 mM KPI buffer with a cocktail of anti-proteases on the same day as the sample preparation required for LC-MS/MS analysis.
Several prodrugs with either free COOH group and ester linkage and macrocycles were selected for IV dosing in animal study to assess PK and d3-Cr release in brain in vivo. Prodrugs were IV dosed in CrT KO mice at 10, 15, or 25 mg/kg in animal studies. Mouse brain homogenates (MBH) were prepared from brains collected from mice after dosing. Levels of prodrug, d3-Cr and d3-Crn were quantified in brain and expressed in brain concentration (for macrocycle prodrugs) or AUC (for linear prodrugs) over time. Very few prodrugs were detected in MBH.

[2] = Liver microsome stability, mouse; type: in vitro ADME; settings: liver microsomes, pH 7.4, Table 2A, read-out: Microsome Stability Mouse t1/2
How it was run: (§1)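 Test compound incubated with mouse or human liver microsomes and NADPH in 0.1 M potassium phosphate, 1.0 mM EDTA, pH 7.4, with a 60-min no-NADPH control. Samples quenched with ACN containing internal standard at 0, 5, 10, 20, 30 and 60 min, then analysed by LC/MS.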

[3] = system: ARPE-19 cells; test: Creatine prodrug uptake and d3-creatine release in ARPE-19 cells (Table 4A); type: cell-based, human; settings: 50 μM, 6 h, cytosol fraction, corrected for total protein
Protocol: At the end of the incubation, supernatant will be collected from each well to assess prodrug recovery. Cells are then washed 3× with PBS. Plates, prodrugs in supernatant, prodrugs in serum-free medium are stored at −80° C. until harvest (within 5 days). On the day of extraction, 130 uL of lysis buffer (10 mM Tris pH 7.4) with EDTA-free protease inhibitors is added to each well and cells are removed using a cell scraper. Lysates are further homogenized using a handheld pestle and then centrifuged at 16,000 g, […], for 10 minutes to collect cytosol fraction. Pellets will be stored at −80° C. until further analysis. A 4× volume of stop solution (80% ACN/20% water) will be added to the cytosol fraction, supernatant and medium. Samples will be centrifuged at 15,890 g (13,000 rpm) at 4° C. for 10 mins. Supernatant will be collected and stored at −80° C. within 5 days prior to LC-MS/MS analysis. Dosing solutions for each prodrug (10 μM) will be assayed to verify concentration. Cells alone with vehicle will serve as controls to assess background signal for LC-MS/MS. Two independent runs of experiment will be conducted.
Nine fatty acid amide creatine prodrugs were tested in human ARPE-19 cells to assess prodrug uptake and d3-Cr release inside the cells. 50 μM of prodrug was incubated in culture medium with the cells and the cells were harvested at 6 h. Quantitation of prodrugs, d3-Cr (d3-creatine) and d3-Cm (d3-creatinine) in the cytosol fraction was corrected for total protein concentration.

[4] = Chemical stability in simulated gastric fluid (SGF) without pepsin; type: physicochemical; settings: Table 2A, 50 μM prodrug
How it was run: (§2)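 Incubations used 50 μM compound at 37 °C in phosphate buffered saline, fasted simulated intestinal fluid without pancreatin, or fasted simulated gastric fluid without pepsin.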

[5] = Liver microsome stability, human; type: in vitro ADME; settings: liver microsomes, pH 7.4, Table 2A, read-out: Microsome Stability Human t1/2
How it was run: as §1

[6] = Chemical stability in phosphate buffered saline (PBS); type: physicochemical; settings: Table 2A, 50 μM prodrug
How it was run: as §2

[7] = Plasma stability, human plasma; type: in vitro ADME; settings: Table 2A, 37 °C, read-out: Plasma Stability Human t1/2
How it was run: (§3)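 Test article, 1 µM final (from 10% DMSO/water), incubated at 37 °C in plasma adjusted to pH 7.4 if needed; samples at 0, 2, 5, 15 and 30 min quenched with ice-cold 80% acetonitrile. Remaining compound by LC-MS/MS; half-life in minutes calculated.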

[8] = Plasma stability, mouse plasma; type: in vitro ADME; settings: Table 2A, 37 °C, read-out: Plasma Stability Mouse t1/2
How it was run: as §3

[9] = Prodrug cleavage in human brain homogenates (HBH): d3-Cr release and d3-Crn cyclization; type: in vitro ADME; settings: for Prodrug Cleavage Human BH d3-Crn release / Prodrug Cleavage Human BH net d3-Cr release: 200 μM prodrug, 3 h, % of nominal input; for Prodrug Cleavage Human BH net d3-Cr release: negative control subtracted
Protocol: For assessment of the ability of prodrugs to release creatine, and to release creatine preferentially to unwanted cyclization to creatinine, d3-labeled (deuterium labeled methyl group) prodrugs are incubated with brain homogenates (e.g., mouse, human) specially prepared to preserve FAAH activity or with rFAAH for direct cleavage study. The use of d3-labelled prodrugs is essential in order to distinguish prodrug-derived creatine (d3-creatine) from high concentrations of endogenous (non-labeled) creatine. […] Prodrugs are tested at final concentrations of 20 μM and 200 μM. Approximately 3-4 mg of homogenate is used for each reaction. Co-factor (NADPH) is included at a final concentration of 1 mM. FAAH activity is confirmed by conversion of 7-amino-4-methyl Coumarin-Arachidonamide to 7-amino-4-methyl Coumarin by fluorescent assay. Negative controls include incubations without brain homogenate/rFAAH (but with NADPH) or 65° C. heat inactivated brain homogenate/rFAAH to assess non-enzymatic prodrug cleavage under the conditions of the assay and FAAH inhibitor […] at the concentration of 1 μM. Prodrug incubations are prepared by addition of 8 μL of prodrug stock solution (500 or 5000 μM in DMSO or DMSO/methanol) to assay buffered, followed by addition of brain homogenate/rFAAH. […] The samples are centrifuged at 15890×g for 10 minutes at 4° C., followed by transfer of the supernatants for storage at −20° C. pending LC-MS/MS analysis. Sample supernatants are analyzed by LC-MS/MS for determination of d3-prodrug, d3-creatine and d3-creatinine levels.
Deuterated creatine prodrugs were tested in 3 different in vitro assays to assess d3-creatine (d3-Cr) release and cyclization to form d3-creatinine (d3-Crn). These assays were 1) direct cleavage with recombinant human FAAH enzyme (rFAAH), 2) cleavage in mouse brain homogenates (MBH), and 3) human brain homogenates (HBH).
Creatine prodrug cleavage efficiency was determined by percentage of net d3-Cr release in μM (positive reaction subtracted from negative control of no brain homogenate/rFAAH or inactivated brain homogenate/rFAAH) over nominal input concentration of 200 μM prodrug at 3 h. Propensity for creatinine cyclization was determined by percentage of d3-Crn generated in μM in positive reaction over nominal input concentration of 200 μM prodrug at 3 h.

[10] = IV 10 mg/kg, CrT KO mouse brain
[11] = in vitro cleavage assays (Table 3A)

AUClast prodrug in the brain [1, 10] | half-life at 10 μM [2] [h] | prodrug, Cellular Uptake [3] | Chemical Stability SGF, no enzyme % T0 at 2 hours at 37 °C. [4] [%] | half-life at 10 μM [5] [h] | Chemical Stability PBS % T0 at 2 hours at 37 °C. [6] [%] | half-life [7] [h] | half-life [8] [h] | SMILES | also measured
 | 1.38 | 24.8 nmol/mg protien | 74 | 2.22 | 76 | > 3 | > 3 | [2H]C([2H])([2H])N(CC(=O)[O-])C(=N)NC(=O)CCCCCCC/C=C\CCCCCCCC.[Na+] [Compound 1, Sodium N-(methyl-d3)-N—(N-oleoylcarbamimidoyl)glycinate] | 
 | > 2.42 | 29.2 nmol/mg protien | 62 | 1.57 | 145 | > 3 | 2.7 | [2H]C([2H])([2H])N(CC(=O)O)C(=N)NC(=O)CCCCCCCCCCC [Compound 30] | 
 |  |  | 117 |  | 99 |  |  | Cl.[2H]C([2H])([2H])N(CC(=O)OC(C)C)C(=N)NC(=O)CCCCCCCCCC [Compound 12-HCl] | Prodrug Cleavage Human BH d3-Crn release [9]: 265.7%; Prodrug Cleavage Human BH net d3-Cr release [9]: 2.9%; d3-Cr release in vitro (in words) [9, 11]: small amount of d3-Cr; d3-Crn (creatinine) cyclization in vitro (in words) [9, 11]: predominantly cyclized into creatinine; also recorded: predominantly creatinine cyclization; d3-Cr/d3-Crn release ratio in vivo (in words) ([1]; brain, CrT KO mice): favorable d3-Cr/d3-Crn ratio
BQL | 15.2 |  | 94 | 10.8 | 97 | > 3 | > 3 | [2H]C([2H])([2H])N(CC(=O)[O-])C(=N)NC(=O)CCCCCC.[Na+] [Compound 13] | crossing of BBB (in words) ([1]; CrT KO mice, IV dosing): did not seem to cross BBB; AUClast d3-Cr in the brain ([1]; IV 10 mg/kg, CrT KO mouse brain, BQL d3-Cr = 13.7 ng/mL): BQL; AUClast d3-Crn in the brain ([1]; IV 10 mg/kg, CrT KO mouse brain, BQL d3-Crn = 1.5 ng/mL): BQL
 |  |  | 103 |  | 62 |  |  | Cl.[2H]C([2H])([2H])N(CC(=O)OCC(C)(C)C)C(=N)NC(=O)CCCCCCCCCC [Compound 39] | Prodrug Cleavage Human BH d3-Crn release [9]: 166.5%; Prodrug Cleavage Human BH net d3-Cr release [9]: 6.4%
BQL | < 0.0833 | BQL | 73 | < 0.0833 | 23 | 0.0833 | < 0.0833 | Cl.[2H]C([2H])([2H])N(CC(=O)OCCCCCCC)C(=N)NC(=O)CCCCCCCCCC [Compound 5, Heptyl N-(methyl-d3)-N—(N-undecanoylcarbamimidoyl)glycinate Hydrochloride] | 
 | > 2.42 | BQL | 78 | > 2.42 | 101 | > 3 | > 3 | [2H]C([2H])([2H])N(CC(=O)[O-])C(=N)NC(=O)c1cccnc1.[Na+] [Compound 20] | d3-Cr, Cellular Uptake [3]: BQL; d3-Crn, Cellular Uptake [3]: BQL
BQL |  |  |  |  |  |  |  | [2H]C([2H])([2H])N(CC(=O)OC(C)C)C(=N)NC(=O)CCCCCCCCCC [Compound 12] | 

SMILES | AUClast prodrug in the brain [1, 10] | half-life at 10 μM [2] [h] | prodrug, Cellular Uptake [3] | Chemical Stability SGF, no enzyme % T0 at 2 hours at 37 °C. [4] [%] | half-life at 10 μM [5] [h] | Chemical Stability PBS % T0 at 2 hours at 37 °C. [6] [%] | half-life [7] [h] | half-life [8] [h] | also measured
[2H]C([2H])([2H])N(CC(=O)OC(C)C)C(=N)NC(=O)CCCCCCCCCCCC [Compound 10] | BQL |  |  |  |  |  |  |  | 
